Our source for the GI50 and TGI values is PubChem BioAssay (NCI).

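Compound exposure: 48 hours, 5 concentrations, 96-well plates. GI50: concentration for 50% inhibition of growth. TGI denotes the concentration required for complete inhibition of growth.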 A value given as a limit tells only on which side of the number the result lay.

Holding throughout (assay): growth of human tumour cells (NCI), 48 h
For assay [1], the system named is CAKI-1 renal.
Assay [2] relates to IGROV1 ovarian.
The subject of assay [3] is SK-MEL-2 melanoma.
For assay [4], the system named is COLO 205 colon.
The test system of assay [5] is OVCAR-3 ovarian.
Assay [6] deals with SF-539 CNS.
Assay [7] concerns MOLT-4 leukemia.
The subject of assay [8] is SK-MEL-5 melanoma.
In assay [9] the test system is SK-MEL-28 melanoma.
In assay [10] the test system is HT29 colon.

For `CCOC(=O)/C(=C/CC/C(C)=C/CC/C(C)=C/CCc1ccoc1)CC(=O)N1CCCCC1`, the GI50 in [1] was 3.16 µM; in [2], 14 µM; in assay [3], 2.04 µM; in assay [4] it was 2.32 µM; in assay [5], 3.44 µM; in assay [6], 7.9 µM. The GI50 in assay [7] is 4.03 µM; in assay [8] it was 1.66 µM; in [9], 3.2 µM. The TGI in assay [1] was found to be 38.3 µM; in [2], 47.2 µM; in assay [3] it was 4 µM; in assay [4], 6.05 µM; in assay [5], 12.3 µM; in assay [6], 20.9 µM. In addition, the TGI in assay [7] was 9.67 µM; in assay [8], 3.09 µM; in assay [9], 12.4 µM.
Take `CCN(C(=O)N1CCN(c2cc3c(cc2F)c(=O)c(C(=O)O)cn3C2CC2)CC1)c1nc(-c2ccccc2)cs1`: the GI50 in [1] was 2.58 µM; in assay [2] it was 3.12 µM; in assay [3] it was 2.02 µM; in [4] it was 2.58 µM; in [5] it was 2.61 µM; in assay [6], 2.48 µM. The GI50 in assay [10] was 3.2 µM; in assay [8], 3.63 µM; in assay [9], 3 µM. The TGI in assay [1] was 10.3 µM; in assay [2] it was more than 100 µM; in assay [3], 4.64 µM; in assay [4], 7.1 µM; in assay [5], 9.83 µM; in assay [6] it was 7.51 µM. The TGI in [10] is more than 100 µM; in assay [8], 55.6 µM; in assay [9], more than 100 µM.
Turning to `O=C(Nc1ccc(OS(=O)(=O)c2ccc(F)cc2)cc1)C12CC3CC(CC(C3)C1)C2`, the GI50 in assay [1] is 29.4 µM; in assay [2], 16.1 µM; in assay [3], 12.9 µM; in [4], 0.434 µM; in assay [5] it was 8.64 µM; in assay [6], 0.75 µM. Further, the GI50 in assay [10] was 0.211 µM; in assay [8], 4.12 µM; in [9] it was 28.1 µM. In addition, the TGI in assay [1] is more than 100 µM; in assay [2], more than 62.5 µM; in assay [3], 39.3 µM; in assay [4], more than 100 µM; in assay [5], 46.3 µM; in [6], more than 100 µM. The TGI in assay [10], in [8] and in assay [9] was more than 100 µM each time.
With `OCC#CCOCC#Cc1ccccc1C#CCOCC#CCO`, the GI50 in assay [1] is 82.8 µM; in [2], more than 100 µM; in assay [3], more than 100 µM; in assay [5], 38.1 µM; in assay [6] it was 47.4 µM; in assay [7], 44.8 µM. The GI50 in assay [8] is 39.8 µM. For the same compound, the TGI in assay [1], in assay [2], in assay [3], in [5], in assay [6] and in [7] was more than 100 µM in each case. The TGI in [8] is more than 100 µM.
Take `C=C1CCC2CC1C(C(=O)c1c[nH]c3ccccc13)=NC2(C)C` (configuration not stated): the TGI in assay [1], in assay [2], in assay [4], in assay [5], in assay [6] and in assay [10] was more than 100 µM throughout. The TGI in assay [7], in [8] and in [9] was more than 100 µM each time.
Consider `NC(CCSCC(F)(F)F)C(=O)O` (configuration not stated), for which the TGI in assay [1], in [2], in [4], in assay [5], in [6] and in assay [10] was more than 100 µM throughout. For the same compound, the TGI in assay [7], in assay [8] and in assay [9] was more than 100 µM each time.
As to `O=C1Cc2c(-c3ccccc3)cc(-c3ccccc3)nc2-c2ccccc2N1`, the TGI in assay [1] was found to be 19.9 µM; in assay [2] it was 68.5 µM; in assay [3], 7.27 µM; in assay [4], 63.7 µM; in assay [5], 21.4 µM; in [6] it was 34.4 µM. Also, the TGI in assay [10] amounted to 28 µM; in [8], 7.58 µM; in [9] it was 83.7 µM.
For `COC(=O)c1cc(-c2ccc3ccccc3c2)[nH]c(=O)c1C#N`, the TGI in assay [1], in assay [2], in assay [3], in assay [4], in assay [5] and in assay [6] was more than 100 µM in each case. For the same compound, the TGI in assay [10], in [8] and in assay [9] was more than 100 µM in each case.
Consider `CCn1cnc(C[C@H](NC(=O)[C@H](CCCCNC(=O)Nc2cc(C(F)(F)F)cc(C(F)(F)F)c2)NC(=O)Nc2cc(C(F)(F)F)cc(C(F)(F)F)c2)C(=O)OC)c1`, for which the GI50 is more than 10 µM in [1]; 5.27 µM in [2]; more than 10 µM in assay [3]; more than 10 µM in [4]; 3.32 µM in assay [5]; more than 10 µM in [6]. The figures for the GI50 in [10], in assay [8] and in assay [9] were 3.97 µM, 7.75 µM and 6.62 µM, respectively. The TGI in assay [1], in [2], in [3], in assay [4], in [5] and in [6] was more than 10 µM throughout. For the same compound, the TGI in [10], in assay [8] and in [9] was more than 10 µM throughout.
As for `O=C(Nc1cccc(C(F)(F)F)c1)C(=O)C(C(=O)c1ccc(Cl)c(Cl)c1)C1OC(=O)c2ccccc21` (configuration not stated), the TGI in [1], in assay [2], in assay [4], in assay [5], in assay [10] and in [7] was more than 100 µM each time.
As for `C/C(NNC(=O)c1ccccc1O)=C1\C=Nc2ccccc2S1`, the TGI in assay [1] was more than 100 µM; in [2], more than 100 µM; in assay [3], 6.79 µM; in assay [5], more than 100 µM; in assay [6], 7.81 µM; in assay [10] it was more than 100 µM. For the same compound, the TGI in assay [7], in assay [8] and in [9] was more than 100 µM throughout.
